The record followed here is patent publication US7166598B2, “Piperazine derivatives” (Astellas Pharma Inc., priority 1998, dated 2007).

Where only a bound is given, the exact number is not on record here.

For orientation: melting point means the temperature of the solid-liquid transition. Consider `Cl.Cl.O=C(c1cc(C(F)(F)F)cc(C(F)(F)F)c1)N1CCN(Cc2cccnc2)C[C@H]1Cc1ccc(F)c(O)c1`, for which the melting point is 50 to 60 °C. For `Cl.Cl.O=C(c1cc(C(F)(F)F)cc(C(F)(F)F)c1)N1CCN(Cc2cccnc2)C[C@H]1Cc1ccc(F)cc1` the value was 130 to 137.3 °C. For `Cl.Cn1cc(CN2CCN(C(=O)c3cc(C(F)(F)F)cc(C(F)(F)F)c3)[C@H](Cc3ccc4ccccc4c3)C2)cn1`, the melting point is greater than 250 °C.

`COc1cc(C(=O)N2CCN(Cc3cccnc3)C[C@H]2Cc2ccc3ccccc3c2)cc(C(F)(F)F)c1.Cl.Cl` yielded a melting point of 162 to 168 °C. Consider `Cl.Cl.O=C(c1cc(C(F)(F)F)cc(C(F)(F)F)c1)N1CCN(CCCc2cccnc2)C[C@H]1Cc1ccc(Cl)c(O)c1`, for which the melting point fell in the range of 65 to 70 °C. Regarding `COc1cc(C[C@@H]2CN(Cc3cnn(C)c3)CCN2C(=O)c2cc(C(F)(F)F)cc(C(F)(F)F)c2)ccc1F.Cl`, the melting point is 127 to 135 °C.

The compound `COc1cc(C[C@@H]2CN(Cc3cccnc3)CCN2C(=O)c2cc(C(F)(F)F)cc(C(F)(F)F)c2)ccc1F.Cl.Cl` came in with a melting point of 143 to 147 °C. Compound `COC[C@@H]1CN(CCN2CCN(C(=O)c3cc(SC)cc(C(F)(F)F)c3)[C@H](Cc3ccc(C)c(O)c3)C2)CCO1.Cl.Cl` had a melting point of 154 to 168 °C.

The compound `COC[C@@H]1CN(CCN2CCN(C(=O)c3cc(C(F)(F)F)cc(S(=O)(=O)N(C)C)c3)[C@H](Cc3ccc(C)c(O)c3)C2)CCO1.Cl.Cl` yielded a melting point of 153.5 to 160 °C.

The compound `Cc1ccc(C[C@@H]2CN(Cc3ccc4ncccc4c3)CCN2C(=O)c2cc(C(F)(F)F)cc(C(F)(F)F)c2)cc1O.Cl.Cl` had a melting point of 170 to 200 °C.

In turn, `Cc1ccc(C[C@@H]2CN(Cc3cnn(C)c3)CCN2C(=O)c2cc(C(F)(F)F)cc(C(F)(F)F)c2)cc1O.Cl` yielded a melting point of 160 to 180 °C.

The compound `Cc1ccc(CC2CN(CCN3C[C@H]4C[C@H]3C(C)(C)O4)CCN2C(=O)c2cc(C(F)(F)F)cc(C(F)(F)F)c2)cc1O.Cl.Cl` (stereo partly drawn) returned a melting point of 173 to 185 °C. For `COC[C@H]1CN(CCN2CCN(C(=O)c3cc(C(F)(F)F)cc(C(F)(F)F)c3)[C@H](Cc3ccc(C)c(O)c3)C2)CCO1.Cl.Cl` the value was 225 to 235 °C. For the compound `Cc1ccc(C[C@@H]2CN(CCN3[C@@H](C)COC[C@@H]3C)CCN2C(=O)c2cc(C(F)(F)F)cc(C(F)(F)F)c2)cc1O.Cl.Cl`, the melting point lay within 240 to 250 °C. With `CNc1cc(C(=O)N2CCN(CCN3C[C@@H](C)O[C@@H](C)C3)C[C@H]2Cc2ccc(Cl)cc2)cc(C(F)(F)F)c1.Cl.Cl` the figure was 245.6 to 248.7 °C. As for `C[C@@H]1CN(CCN2CCN(C(=O)c3cc(F)cc(C(F)(F)F)c3)[C@H](Cc3ccc(Cl)cc3)C2)C[C@H](C)O1.Cl.Cl`, the melting point lay within 80.1 to 82.5 °C. In turn, `C[C@@H]1CN(CCN2CCN(C(=O)c3cc(Cl)cc(Cl)c3)[C@H](Cc3ccc(Cl)cc3)C2)C[C@H](C)O1.Cl.Cl` showed a melting point of 140.1 to 143.8 °C. Turning to `Cl.Cl.Cl.Cl.O=C(c1cc(-c2ccncc2)cc(C(F)(F)F)c1)N1CCN(CCN2CCc3ncccc3C2)C[C@H]1Cc1ccc(Cl)cc1`, the melting point was in the range of 206 to 217 °C. With `Cl.Cl.Cl.O=C(c1cc(F)cc(C(F)(F)F)c1)N1CCN(CCN2CCc3ncccc3C2)C[C@H]1Cc1ccc(Cl)cc1` the figure was 127.3 to 130.9 °C; with `Cc1ccc(C[C@@H]2CN(Cc3csc(N)n3)CCN2C(=O)c2cc(C(F)(F)F)cc(C(F)(F)F)c2)cc1O.Cl.Cl`, 205 to 215 °C; with `Cc1ccc(C[C@@H]2CN(Cc3nsc(N)n3)CCN2C(=O)c2cc(C(F)(F)F)cc(C(F)(F)F)c2)cc1O.Cl.Cl`, 177 to 182 °C.

Compound `COc1cc(C(=O)N2CCN(CCCc3cccnc3)C[C@H]2Cc2ccc(C(F)(F)F)cc2)cc(C(F)(F)F)c1.Cl.Cl` displayed a melting point of 70 to 80 °C.

Consider `COC[C@@H]1CN(C/C=C\CN2CCN(C(=O)c3cc(C(F)(F)F)cc(C(F)(F)F)c3)[C@H](Cc3ccc(C)c(O)c3)C2)CCO1.Cl.Cl`, for which the melting point was 180 to 200 °C.

In turn, `COC[C@@H]1COCCN1CCN1CCN(C(=O)c2cc(C(F)(F)F)cc(C(F)(F)F)c2)C(Cc2ccc(C)c(O)c2)C1.Cl.Cl` (stereo partly drawn) came in with a melting point of 167 to 172 °C. For the compound `CNc1cc(C[C@@H]2CN(CCN3CCO[C@H](COC)C3)CCN2C(=O)c2cc(C(F)(F)F)cc(C(F)(F)F)c2)ccc1C.Cl.Cl.Cl`, the melting point was in the range of 156 to 163 °C. With `COCC1(COC)CN(CCN2CCN(C(=O)c3cc(C(F)(F)F)cc(C(F)(F)F)c3)[C@H](Cc3ccc(C(F)(F)F)cc3)C2)CCO1.Cl.Cl` the figure was 123 to 149 °C; with `Cl.Cl.O=C(c1cc(C(F)(F)F)cc(C(F)(F)F)c1)N1CCN(CCN2CC3CCC(C2)O3)C[C@H]1Cc1ccc(C(F)(F)F)cc1`, 232 to 250 °C; with `CN(C)S(=O)(=O)c1cc(C(=O)N2CCN(CCN3CCc4ncccc4C3)C[C@H]2Cc2ccc(C(F)(F)F)cc2)cc(C(F)(F)F)c1.Cl.Cl.Cl`, 190 to 194 °C. With `COC[C@H]1CN(CCN2CCN(C(=O)c3cc(C(F)(F)F)cc(C(F)(F)F)c3)[C@H](Cc3ccc(C(F)(F)F)cc3)C2)CCO1.Cl.Cl` the figure was 188 to 194 °C. With `Cl.Cl.O=C(c1cc(C(F)(F)F)cc(C(F)(F)F)c1)N1CCN(CCN2CCC[C@H]2CO)C[C@H]1Cc1ccc(C(F)(F)F)cc1` the figure was 221 to 224 °C; with `COC[C@@H]1C[C@H](COC)CN(CCN2CCN(C(=O)c3cc(C(F)(F)F)cc(C(F)(F)F)c3)[C@H](Cc3ccc(C(F)(F)F)cc3)C2)C1.Cl.Cl`, 157 to 160 °C; with `COc1cc(C[C@@H]2CN(CCN3[C@H](CO)CCC[C@@H]3CO)CCN2C(=O)c2cc(C(F)(F)F)cc(C(F)(F)F)c2)ccc1F.Cl.Cl`, 159 to 161 °C. Consider `COc1cc(C(=O)N2CCN(CCN3CCc4ncccc4C3)C[C@H]2Cc2ccc(C)c(O)c2)cc(C(F)(F)F)c1.Cl.Cl.Cl`, for which the melting point lay within 192 to 208 °C.

Compound `COc1cc(C(=O)N2CCN(CC#CCN3CCOCC3(C)C)C[C@H]2Cc2ccc(C)c(O)c2)cc(C(F)(F)F)c1.Cl.Cl` gave a melting point of 181 to 188 °C.

Compound `C[C@@H]1CN(CCN2CCN(C(=O)c3cc(Cl)cc(C(F)(F)F)c3)[C@H](Cc3ccc(Cl)c(O)c3)C2)C[C@H](C)O1.Cl.Cl` showed a melting point of 196 to 199 °C.

Consider `Cl.Cl.Cl.O=C(c1cc(Cl)cc(C(F)(F)F)c1)N1CCN(CCN2CCc3ncccc3C2)C[C@H]1Cc1ccc(Cl)c(O)c1`, for which the melting point fell in the range of 200 to 204 °C.

`Cl.Cl.Cl.Cl.O=C(c1cc(-c2ccncc2)cc(C(F)(F)F)c1)N1CCN(CCN2CCc3ncccc3C2)C[C@H]1Cc1ccc(C(F)(F)F)cc1` returned a melting point of 205 to 218 °C. With `COC[C@@H]1CN(CCN2CCN(C(=O)c3cc(C)cc(C(F)(F)F)c3)[C@H](Cc3ccc(Cl)cc3)C2)CCO1.Cl.Cl` the figure was 148 to 151 °C; with `COC[C@@H]1CN(CCN2CCN(C(=O)c3cc(SC)cc(C(F)(F)F)c3)[C@H](Cc3ccc(Cl)c(O)c3)C2)CCO1.Cl.Cl`, 169 to 174 °C; with `COC[C@@H]1CN(CCN2CCN(C(=O)c3cc(C(F)(F)F)cc(C(F)(F)F)c3)[C@H](Cc3ccc(C(C)C)c(O)c3)C2)CCO1.Cl.Cl`, 218 to 228 °C. Compound `COc1cc(C[C@@H]2CN(CCN3CCc4ncccc4C3)CCN2C(=O)c2cc(C(F)(F)F)cc(C(F)(F)F)c2)ccc1F.Cl.Cl.Cl` came in with a melting point of 175 to 185 °C.

Take `COC[C@@H]1CN(CCN2CCN(C(=O)c3cc(C(F)(F)F)cc(C(F)(F)F)c3)[C@H](Cc3ccc(F)c(O)c3)C2)CCO1.Cl.Cl`: the melting point fell in the range of 156 to 168 °C.

Compound `CC1(C)COCCN1CC#CCN1CCN(C(=O)c2cc(C(F)(F)F)cc(C(F)(F)F)c2)[C@H](Cc2ccc(F)c(O)c2)C1.Cl.Cl` returned a melting point of 180 to 184 °C. Compound `COC[C@@H]1CN(CCN2CCN(C(=O)c3cc(C(F)(F)F)cc(C(F)(F)F)c3)[C@H](Cc3ccc(F)c(OC)c3)C2)CCO1.Cl.Cl` came in with a melting point of 180 to 190 °C.

As to `COC[C@@H]1CN(CCN2CCN(C(=O)c3cc(C(F)(F)F)cc(C(F)(F)F)c3)[C@H](Cc3ccc(F)c(F)c3)C2)CCO1.Cl.Cl`, the melting point was in the range of 196 to 198 °C. `COC[C@@H]1CN(CCN2CCN(C(=O)c3cc(OC)cc(C(F)(F)F)c3)[C@H](Cc3ccc(C(F)(F)F)c(OC)c3)C2)CCO1.Cl.Cl` registered a melting point of 135 to 140 °C. In turn, `Cl.Cn1cc(CN2CCN(C(=O)c3cc(C(F)(F)F)cc(C(F)(F)F)c3)[C@H](Cc3ccc(C(F)(F)F)cc3)C2)cn1` showed a melting point of 200 to 229 °C. On to `COc1cc(C(=O)N2CCN(CCN3CCc4ncccc4C3)C[C@H]2Cc2ccc(C(F)(F)F)cc2)cc(C(F)(F)F)c1.Cl.Cl.Cl`, for which the melting point lay in the range of 185 to 191 °C. With `C[C@@H]1CN(CCN2CCN(C(=O)c3cc(C(F)(F)F)cc(C(F)(F)F)c3)[C@H](Cc3ccc(Cl)cc3)C2)C[C@H](C)O1.Cl.Cl` the figure was 150 to 175 °C (dec.); with `C[C@@H]1CN(CCN2CCN(C(=O)c3cc(C(F)(F)F)cc(C(F)(F)F)c3)[C@H](Cc3ccc(Cl)c(O)c3)C2)C[C@H](C)O1.Cl.Cl`, 172 to 175 °C.

The compound `COc1cc(C(=O)N2CCN(CCN3CCc4ncccc4C3)C[C@H]2Cc2ccc(Cl)cc2)cc(C(F)(F)F)c1.Cl.Cl.Cl` had a melting point of 140 to 170 °C. With `Cl.Cl.O=C(c1cc(C(F)(F)F)cc(C(F)(F)F)c1)N1CCN(CCN2CCC(F)(F)CC2)C[C@H]1Cc1ccc(F)cc1` the figure was 264 to 270.6 °C.

In turn, `COc1cc(C(=O)N2CCN(CCN3C[C@@H](C)O[C@@H](C)C3)C[C@H]2Cc2ccc3ccccc3c2)cc(C(F)(F)F)c1.Cl.Cl` gave a melting point of 188 to 193 °C. For `Cl.Cl.Cl.O=C(c1cc(C(F)(F)F)cc(C(F)(F)F)c1)N1CCN(CCN2CCc3ncccc3C2)C[C@H]1Cc1ccc(Cl)c(O)c1` the value was 237 to 243 °C (dec.); for `COc1cc(C(=O)N2CCN(CCN3CCc4ncccc4C3)C[C@H]2Cc2ccc3ccccc3c2)cc(C(F)(F)F)c1.Cl.Cl.Cl`, 173 to 183 °C. `COC[C@H]1CN(CCN2CCN(C(=O)c3cc(OC)cc(C(F)(F)F)c3)[C@H](Cc3c[nH]c4ccccc34)C2)CCO1.Cl.Cl` showed a melting point of 200 to 210 °C. With `COc1cc(C(=O)N2CCN(CCN3C[C@@H](C)O[C@@H](C)C3)C[C@H]2Cc2c[nH]c3ccccc23)cc(C(F)(F)F)c1.Cl.Cl` the figure was 188 to 200 °C.
